Assay results reported in article PMC10766964, “Copper-catalyzed synthesis of pyrazolo[1,5-a]pyrimidine based triazole-linked glycohybrids: mechanistic insights and bio-applications” (Scientific Reports, 2024).
Like-named read-outs stand apart in the source and are kept apart here.

Tested on: MDA-MB-231 (human breast cancer) cell line
Experiment: MTT cell viability assay in MDA-MB-231 cells
Format: cell-based
Settings: 72 h
Protocol: Thus, we screened the synthesized library of pyrazolo[1,5-a]pyrimidin-7-ols 4a–4i. Anticancer activity (in terms of growth inhibition/decreased cell viability with respect to control) of all synthesized compounds (n = 9) was investigated by MTT assay in MDA-MB-231 (human breast cancer) cell line at different concentrations for 72 h. […] Thus, it was aimed to investigate the anticancer activity of a synthesized library of triazole-linked glycohybrids of pyrazolo[1,5-a]pyrimidines. […] The MTT assay was used to investigate the anticancer activity of twenty-seven synthesized compounds on the growth inhibition and decrement in cell viability of MDA-MB-231 (human breast cancer). Different concentrations were tested for 72 h, and the results were compared to a control. MDA-MB-231, a human breast cancer cell line, was cultured under standard conditions. Specifically, they were grown in Dulbecco’s Modified Eagle’s Medium (DMEM) supplemented with 10% heat-inactivated Fetal Bovine Serum (FBS) and 1% penicillin–streptomycin. The cells were maintained as a monolayer in a 100 mm culture plate and were used for experiments before reaching their 8th passage. Subculturing was performed every third-day using trypsin EDTA treatment. All incubation and maintenance procedures were carried out in a humidified CO2 incubator at 37 °C. To evaluate cell viability, the MTT assay was conducted following standard procedures. After 72 h of cell incubation with or without each compound, cell viability was assessed using MTT (3-(4,5-dimethylthiazol-2-yl)-2,5-diphenyltetrazolium bromide), which is a colorimetric method for determining the number of viable cells in various assays including proliferation, cytotoxicity, or chemosensitivity. The MTT reagent was added to the cells after removal of the medium and incubated for 3 h at 37 °C in the CO2 incubator. The formazan product, which is […] in the tissue culture medium, was dissolved in DMSO, and the absorbance of the formazan product was directly measured at 595 nm using a multimode plate reader without additional processing. The absorbance values are directly proportional to the number of viable cells in culture. The percentage of viable cells in each group was determined relative to the untreated control cells.

[1] = Table 1, MDA-MB-231, MTT, read-out: Cell Viability (%) ± SD
[2] = Table 2, MDA-MB-231, MTT, read-out: Cell viability (%) ± SD

SMILES | viability at 10 µM [1] [%] | viability at 25 µM [1] [%] | viability at 50 µM [1] [%] | viability at 10 µM [2] [%] | viability at 25 µM [2] [%] | viability at 50 µM [2] [%]
Cc1ccc(-c2cc(O)n3nccc3n2)cc1 [Compound 4a] | 91.4 ± 4.38 | 85.5 ± 3.74 | 84.4 ± 2.16 | – | – | –
COc1ccc(-c2cc(O)n3nccc3n2)cc1 [Compound 4b] | 85.1 ± 8.53 | 80.1 ± 3.51 | 70.5 ± 5.69 | – | – | –
Oc1cc(-c2ccc(Br)cc2)nc2ccnn12 [Compound 4c] | 100 ± 4.01 | 99.1 ± 3.93 | 96.5 ± 2.89 | – | – | –
Oc1cc(-c2ccc(Cl)cc2)nc2ccnn12 [Compound 4d] | 98.6 ± 2.25 | 95.2 ± 1.96 | 87.2 ± 9.22 | – | – | –
Oc1cc(-c2ccc(F)cc2)nc2ccnn12 [Compound 4e] | 86.6 ± 9.76 | 78.1 ± 3.51 | 69.5 ± 5.69 | – | – | –
Oc1cc(-c2ccc(C(F)(F)F)cc2)nc2ccnn12 [Compound 4f] | 92.2 ± 8.51 | 88.8 ± 8.75 | 72.8 ± 7.02 | – | – | –
CC(C)c1ccc(-c2cc(O)n3nccc3n2)cc1 [Compound 4g, 5-(4-isopropylphenyl)pyrazolo[1,5-a]pyrimidin-7-ol] | 101 ± 5.51 | 98.1 ± 2.51 | 70.5 ± 5.69 | – | – | –
Oc1cc(-c2ccc3ccccc3c2)nc2ccnn12 [Compound 4h] | 89.1 ± 4.09 | 86.5 ± 2.58 | 84.4 ± 7.36 | – | – | –
Oc1cc(-c2ccc3c(c2)OCO3)nc2ccnn12 [Compound 4i] | 96.6 ± 3.36 | 89.1 ± 3.51 | 73.5 ± 6.69 | – | – | –
COc1ccc(-c2cc(OCc3cn([C@@H]4O[C@H](COC(C)=O)[C@@H](OC(C)=O)[C@H](OC(C)=O)[C@H]4OC(C)=O)nn3)n3nccc3n2)cc1 [Compound 9b, (2R,3R,4S,5R,6R)-2-(acetoxymethyl)-6-(4-(((5-(4-methoxyphenyl)pyrazolo[1,5-a]pyrimidin-7-yl)oxy)methyl)-1H-1,2,3-triazol-1-yl)tetrahydro-2H-pyran-3,4,5-triyl triacetate] | – | – | – | 95.4 ± 5.38 | 85.5 ± 6.74 | 83.4 ± 4.16
CC(=O)OC[C@H]1O[C@@H](n2cc(COc3cc(-c4ccc(Br)cc4)nc4ccnn34)nn2)[C@H](OC(C)=O)[C@@H](OC(C)=O)[C@@H]1OC(C)=O [Compound 9c, (2R,3R,4S,5R,6R)-2-(acetoxymethyl)-6-(4-(((5-(4-bromophenyl)pyrazolo[1,5-a]pyrimidin-7-yl)oxy)methyl)-1H-1,2,3-triazol-1-yl)tetrahydro-2H-pyran-3,4,5-triyl triacetate] | – | – | – | 100 ± 8.01 | 100 ± 8.93 | 99.5 ± 2.89
CC(=O)OC[C@H]1O[C@@H](n2cc(COc3cc(-c4ccc(F)cc4)nc4ccnn34)nn2)[C@H](OC(C)=O)[C@@H](OC(C)=O)[C@@H]1OC(C)=O [Compound 9e, (2R,3R,4S,5R,6R)-2-(acetoxymethyl)-6-(4-(((5-(4-fluorophenyl)pyrazolo[1,5-a]pyrimidin-7-yl)oxy)methyl)-1H-1,2,3-triazol-1-yl)tetrahydro-2H-pyran-3,4,5-triyl triacetate] | – | – | – | 98.6 ± 2.25 | 92.2 ± 1.96 | 81.2 ± 9.22
CC(=O)OC[C@H]1O[C@@H](n2cc(COc3cc(-c4ccc(C(F)(F)F)cc4)nc4ccnn34)nn2)[C@H](OC(C)=O)[C@@H](OC(C)=O)[C@@H]1OC(C)=O [Compound 9f, (2R,3R,4S,5R,6R)-2-(acetoxymethyl)-6-(4-(((5-(4-(trifluoromethyl)phenyl)pyrazolo[1,5-a]pyrimidin-7-yl)oxy)methyl)-1H-1,2,3-triazol-1-yl)tetrahydro-2H-pyran-3,4,5-triyl triacetate] | – | – | – | 92.2 ± 8.51 | 88.8 ± 8.75 | 73.8 ± 7.02
